In ChEMBL document CHEMBL4118127, “Structure activity relationship studies on rhodanines and derived enethiol inhibitors of metallo-β-lactamases” (Bioorg Med Chem, 2018):
Active and inactive are the calls of the source.

What was measured:
[1] = target: Beta-lactamase CTX-M (Escherichia coli) (UniProt Q9EXV5); test: Inhibition of recombinant Escherichia coli EO516 N-terminal His6-tagged CTX-M using FC5 as substrate at 200 uM preincubated at 10 to 300 mins followed by substrate addition
[2] = target: Beta-lactamase TEM (Bacteria) (UniProt P62593); test: Inhibition of recombinant N-terminal His-tagged Escherichia coli TEM1 (24 to 286 residues) expressed in Escherichia coli BL21(DE3) at 200 uM using FC5 as substrate
[3] = target: Beta-lactamase (Escherichia coli K-12) (UniProt P00811); test: Inhibition of recombinant Escherichia coli AmpC at 200 uM using FC5 as substrate preincubated at 10 to 300 mins followed by substrate addition
[4] = target: Beta-lactamase OXA-10 (Pseudomonas aeruginosa) (UniProt P14489); test: Inhibition of recombinant Pseudomonas aeruginosa OXA-10 at 200 uM using FC5 as substrate

Measured: inhibition

Sequence of Beta-lactamase TEM (Bacteria) (P62593 whole entry, the tested form may be a part): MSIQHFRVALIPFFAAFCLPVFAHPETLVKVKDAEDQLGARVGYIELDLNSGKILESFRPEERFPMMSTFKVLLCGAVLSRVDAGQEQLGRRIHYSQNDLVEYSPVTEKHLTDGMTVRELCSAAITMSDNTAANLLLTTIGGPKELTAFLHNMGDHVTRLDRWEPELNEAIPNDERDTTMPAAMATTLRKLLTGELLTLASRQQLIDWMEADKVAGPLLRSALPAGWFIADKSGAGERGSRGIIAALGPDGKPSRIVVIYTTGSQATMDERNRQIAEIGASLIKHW
Sequence of Beta-lactamase (Escherichia coli K-12) (P00811 whole entry): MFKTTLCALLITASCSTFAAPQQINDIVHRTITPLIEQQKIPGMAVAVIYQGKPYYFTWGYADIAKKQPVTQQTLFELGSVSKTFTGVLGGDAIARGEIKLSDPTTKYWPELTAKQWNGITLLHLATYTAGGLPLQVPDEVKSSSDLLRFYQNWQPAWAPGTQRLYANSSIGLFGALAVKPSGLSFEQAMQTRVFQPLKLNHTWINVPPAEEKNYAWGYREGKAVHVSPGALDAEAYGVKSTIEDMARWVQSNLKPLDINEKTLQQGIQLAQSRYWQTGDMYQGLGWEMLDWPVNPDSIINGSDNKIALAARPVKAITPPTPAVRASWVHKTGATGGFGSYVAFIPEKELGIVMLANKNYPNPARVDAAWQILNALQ
Sequence of Beta-lactamase OXA-10 (Pseudomonas aeruginosa) (P14489 whole entry): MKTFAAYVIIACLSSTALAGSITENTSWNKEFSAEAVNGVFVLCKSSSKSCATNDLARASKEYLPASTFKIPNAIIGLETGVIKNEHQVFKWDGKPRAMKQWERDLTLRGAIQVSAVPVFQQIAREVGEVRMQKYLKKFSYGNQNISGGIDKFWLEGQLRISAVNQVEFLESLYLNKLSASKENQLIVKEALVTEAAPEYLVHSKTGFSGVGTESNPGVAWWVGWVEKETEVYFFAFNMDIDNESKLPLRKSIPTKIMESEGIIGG

O=C(O)/C(S)=C/c1ccccc1F
inactive: all assays above

Cc1ccc(/C=C(\S)C(=O)O)cc1
inactive: all assays above

O=C(O)CN1C(=O)/C(=C/c2csc3ccccc23)SC1=S
inactive: all assays above

O=C(O)CN1C(=O)/C(=C/c2c(F)cccc2F)SC1=S
inactive: all assays above

O=C(O)/C(S)=C/c1ccc(F)cc1
inactive: all assays above

CN1CCN(NC(=O)CN2C(=O)/C(=C/c3c(F)cccc3Cl)SC2=S)CC1
inactive: all assays above

Cc1ccc(/C=C2\SC(=S)N(CC(=O)NN3CCN(C)CC3)C2=O)cc1
inactive: all assays above

O=C(O)/C(S)=C/c1csc2ccccc12
inactive: all assays above

O=C(O)CN1C(=O)/C(=C/c2ccccc2I)SC1=S
inactive: all assays above

Cc1cccc(C)c1/C=C1\SC(=S)N(CC(=O)O)C1=O
inactive: all assays above

CN1CCN(NC(=O)CN2C(=O)/C(=C/c3csc4ccccc34)SC2=S)CC1
inactive: all assays above

O=C(O)/C(S)=C/c1c(F)ccc(F)c1F
inactive: all assays above

CN1CCN(NC(=O)CN2C(=O)/C(=C/c3cccc(Cl)c3Cl)SC2=S)CC1
inactive: all assays above

O=C(O)/C(S)=C/c1ccccc1
inactive: all assays above

O=C(O)CN1C(=O)/C(=C/c2ccc(Br)cc2)SC1=S
inactive: all assays above

Cc1cccc(C)c1/C=C(\S)C(=O)O
inactive: all assays above

O=C(O)/C(S)=C/c1cc(Cl)ccc1Cl
inactive: all assays above

CN1CCN(NC(=O)CN2C(=O)/C(=C/c3c(Cl)cccc3Cl)SC2=S)CC1
inactive: all assays above

COc1ccc(/C=C2\SC(=S)N(CC(=O)O)C2=O)cc1
inactive: all assays above

O=C(O)CN1C(=O)/C(=C/c2cccc(Cl)c2Cl)SC1=S
inactive: all assays above

CN1CCN(NC(=O)CN2C(=O)/C(=C/c3c(F)ccc(F)c3F)SC2=S)CC1
inactive: all assays above

O=C(O)/C(S)=C/c1ccc(Br)cc1
inactive: all assays above

CN1CCN(NC(=O)CN2C(=O)/C(=C/c3ccccc3Cl)SC2=S)CC1
inactive: all assays above

CN1CCN(NC(=O)CN2C(=O)/C(=C/c3ccc(F)cc3)SC2=S)CC1
inactive: all assays above

Cc1ccc(/C=C2\SC(=S)N(CC(=O)O)C2=O)cc1
inactive: all assays above

COc1ccc(/C=C(\S)C(=O)O)cc1
inactive: all assays above

CN1CCN(NC(=O)CN2C(=O)/C(=C/c3ccccc3F)SC2=S)CC1
inactive: all assays above

O=C(O)/C(S)=C/c1ccccc1Cc1ccc2ccccc2c1
inactive: all assays above

CN1CCN(NC(=O)CN2C(=O)/C(=C/c3ccccc3)SC2=S)CC1
inactive: all assays above

Cc1cccc(C)c1/C=C1\SC(=S)N(CC(=O)NN2CCN(C)CC2)C1=O
inactive: all assays above

O=C(O)/C(S)=C/c1c(F)cccc1Cl
inactive: all assays above

O=C(O)/C(S)=C/c1cccc(Cl)c1Cl
inactive: all assays above

O=C(O)CN1C(=O)/C(=C/c2c(F)cccc2Cl)SC1=S
inactive: all assays above

O=C(O)/C(S)=C/c1ccccc1Cl
inactive: all assays above

CN1CCN(NC(=O)CN2C(=O)/C(=C/c3ccccc3I)SC2=S)CC1
inactive: all assays above

CN1CCN(NC(=O)CN2C(=O)/C(=C/c3c(Cl)ccc(Cl)c3Cl)SC2=S)CC1
inactive: all assays above

O=C(O)CN1C(=O)/C(=C/c2ccccc2Cl)SC1=S
inactive: all assays above

O=C(O)CN1C(=O)/C(=C/c2ccccc2)SC1=S
inactive: all assays above

O=C(O)CN1C(=O)/C(=C/c2c(F)ccc(F)c2F)SC1=S
inactive: all assays above

O=C(O)CN1C(=O)/C(=C/c2ccc(F)cc2)SC1=S
inactive: all assays above
